The source of these data is patent publication US20140187627A1, “USES OF C15-SUBSTITUTED ANDROGRAPHOLIDE DERIVATIVES IN THE PREPARATION OF ANTI-HEPATITIS B VIRUS MEDICAMENT” (ZHENGZHOU UNIVERSITY, priority 2011, published 2014).

Data set [1] relates to HBV. The conditions noted are these: cited from earlier work.
Data set [2] has as its system HBV surface antigen (HBsAg) of HBV-transfected HepG2.2.15 cell line. Briefly: Inhibition of HBsAg secretion in culture supernatant of HepG2.2.15 cells (ELISA), with MTT cytotoxicity for therapeutic index. The class given is cell-based, Hepatitis B virus. On the procedure:
HepG2.2.15 cell line, stably transfected with HBV-DNA, was used to evaluate the inhibition of the compounds against the HBV surface antigen (HBsAg) level in the culture supernatant of HepG2.2.15 cell. HepG2.2.15 cells were seeded at a density of 1.25×10^4 cells/well into 48-well plates, 0.5 ml RPMI1640 medium containing 10% fetal bovine serum, 100 unit/ml penicillin, 100 μg/ml streptomycin and 380 μg/ml geneticin (G418) was added to the well. Cells were incubated at 37° C. in a humidified incubator of 5% CO2 for 24 h, and then the culture medium was replaced by fresh medium containing Lamivudine (the positive drug) and compounds of this invention at five concentrations. The culture medium was replaced by a fresh one after 3 days and 6 days incubation, respectively. On d9, the supernatant was collected to determine the HBsAg level and the cells were used to assay the viability by MTT method.
Add 100 μl PBS solution containing 0.5 mg/ml MTT [3-(4,5-dimethylthiazol-2-yl)-2,5diphenyltetrazolium bromide] to the well after removing the supernatant, incubate at 37° C. for 4 h, remove the medium, add […] of DMSO to each well and the plates were shaken for 10 min. The optical density value (A) of each well was read using a PowerWaveX Microplate Scanning Spectrophotometer (Bio-tek Instruments, Inc) at 490 nm. Cells survival rate was calculated. […]

A word on the IC50: it is the concentration needed to halve the response being measured.

Where “and” joins values, the source holds several entries; their conditions need not be identical. Identical values can stand only once.

`C=C1CCC2C(C)(COC(=O)c3cccnc3)C(OC(=O)c3cccnc3)CCC2(C)C1C=CC1=CC(=Cc2ccc(Cl)cc2)OC1=O` (stereo not drawn) [15-p-chlorobenzylidene-14-deoxy-11, 12-didehydro-3, 19-dinicotinate-andrographolide]: the “Anti-HBV effect in vitro” value in data set [1] is given as “anti-HBV effect in vitro”.

As for `Nc1ccn([C@@H]2CS[C@H](CO)O2)c(=O)n1` [Lamivudine], the “Therapeutic index (TI = TC50/IC50)” value in data set [2] (HepG2.2.15 cells, treated for 9d, TC50 by MTT) is given as “greater than 2”. Also, in data set [2] (Hepatitis B virus, HepG2.2.15, 216 h, read-out: IC50 against HBsAg secretion), the IC50 is ~10 µg/mL and ~43.7 µM.
